Results published in BindingDB's records for doi:10.7270/Q24Q7SF3 (Burnham Center For Chemical Genomics, 2010).

target: T1, Alkaline phosphatase, tissue-nonspecific isozyme (Homo sapiens, UniProt P05186); assay: TNAP enzyme activators, dose response, selectivity assay for human IAP activator project, biochemical, TNAP isozyme, human IAP uHTS hits (AID 488886)
T1 sequence (P05186 whole entry): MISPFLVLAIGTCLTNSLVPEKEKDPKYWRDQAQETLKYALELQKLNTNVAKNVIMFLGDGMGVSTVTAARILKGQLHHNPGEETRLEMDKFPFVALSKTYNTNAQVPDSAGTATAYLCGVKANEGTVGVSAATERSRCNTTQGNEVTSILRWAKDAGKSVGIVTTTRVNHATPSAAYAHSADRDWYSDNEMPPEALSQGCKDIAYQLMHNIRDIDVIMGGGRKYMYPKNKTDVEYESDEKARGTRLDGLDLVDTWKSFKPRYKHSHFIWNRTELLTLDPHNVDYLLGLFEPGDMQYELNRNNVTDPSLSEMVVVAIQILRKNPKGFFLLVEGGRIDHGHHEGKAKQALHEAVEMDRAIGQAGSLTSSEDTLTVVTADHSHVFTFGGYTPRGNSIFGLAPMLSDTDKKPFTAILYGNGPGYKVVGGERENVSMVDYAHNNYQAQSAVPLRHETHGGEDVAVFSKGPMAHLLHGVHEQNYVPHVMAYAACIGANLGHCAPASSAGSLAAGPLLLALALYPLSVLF

EC50 [µM]	Compound
> 100	O=c1c2ccccc2nc(N=NCc2c(O)ccc3ccccc23)n1O [SMR000145705]
> 100	O=Nc1[nH]c(=O)c(CC(=O)c2ccccc2)nc1NO [SMR000539633]

Second part, the compound before the results:

Compound	EC50 [µM]
Cc1cc(Br)ccc1SCC(=O)OCC(=O)C(C#N)c1nc2ccccc2[nH]1 (stereo not drawn) [2-[(4-bromo-2-methylphenyl)thio]acetic acid [3-cyano-3-(1,3-dihydrobenzimidazol-2-ylidene)-2-oxopropyl] ester]	24.1
C=c1[nH]n(-c2nc3ccccc3[nH]2)c(=O)c1=CN(C)C [(4E)-2-(1H-benzimidazol-2-yl)-4-(dimethylaminomethylidene)-5-methyl-pyrazol-3-one]	11.4
CCc1ccc(CN=Nc2ncnc3nc[nH]c23)cc1 [MLS000419199]	17.7
Cn1c(C(C#N)C(=O)c2ccc(Br)s2)nc2ccccc21 (stereo not drawn) [MLS001167394]	45
COc1cccc(C=NNC(=O)c2[nH][nH]c(=O)c2C)c1O [N'-[(E)-(5-methoxy-6-oxidanylidene-cyclohexa-2,4-dien-1-ylidene)methyl]-4-methyl-5-oxidanylidene-1,4-dihydropyrazole-3-carbohydrazide]	8.88
CCOC(=O)c1c(C)[nH]c(C(=O)N/N=C/C2C=C([N+](=O)[O-])C=CC2=O)c1C (stereo not drawn) [ethyl 2,4-dimethyl-5-[[[(E)-(3-nitro-6-oxocyclohexa-2,4-dien-1-ylidene)methyl]amino]carbamoyl]-1H-pyrrole-3-carboxylate]	22.3
